Laboratory results taken from ChEMBL document CHEMBL1132741, “Novel antifungals based on 4-substituted imidazole: a combinatorial chemistry approach to lead discovery and optimization” (Bioorg Med Chem Lett, 2000).
Converted amounts (≈) assume the structure as drawn.

Tests used:
[1] = Antifungal activity against molds expressed as negative log (pLAD value).; type: functional, mould
Saccharomyces cerevisiae = test: Antifungal activity against yeast expressed as negative log (pLAD value).; type: functional
Aspergillus fumigatus = test: Minimum inhibitory concentration of compound for antifungal activity against Aspergillus fumigatus; type: functional
Nakaseomyces glabratus = test: Minimum inhibitory concentration of compound for antifungal activity against Candida glabrata; type: functional
Kluyveromyces marxianus = test: Minimum inhibitory concentration of compound for antifungal activity against Candida kefyr; type: functional
Candida albicans [2] = test: Minimum inhibitory concentration of compound for antifungal activity against Candida albicans 1; type: functional
Candida albicans [3] = test: Minimum inhibitory concentration of compound for antifungal activity against Candida albicans 2; type: functional
Candida albicans [4] = test: Minimum inhibitory concentration of compound for antifungal activity against Candida albicans 4; type: functional
Candida parapsilosis = test: Minimum inhibitory concentration of compound for antifungal activity against Candida parapsilosis; type: functional; settings: Lodderomyces parapsilosis
Candida tropicalis = test: Minimum inhibitory concentration of compound for antifungal activity against Candida tropicalis; type: functional
Pichia kudriavzevii = test: Minimum inhibitory concentration of compound for antifungal activity against Candida krusei; type: functional
Cryptococcus neoformans = test: Minimum inhibitory concentration of compound for antifungal activity against Cryptococcus neoformans; type: functional
Microsporum canis = test: Minimum inhibitory concentration of compound for antifungal activity against Mucosporam canis; type: functional
Trichophyton benhamiae = test: Minimum inhibitory concentration of compound for antifungal activity against Trichophyton mentagrophytes; type: functional, Arthroderma benhamiae
Trichophyton rubrum = test: Minimum inhibitory concentration of compound for antifungal activity against Trichophyton rubrum; type: functional
Sporothrix schenckii = test: Minimum inhibitory concentration of compound for antifungal activity against Sporothrix schenck ii; type: functional
Candida albicans [5] = test: Inhibition of ergosterol synthesis as measured in Candida albicans subcellular screen; type: functional

| SMILES | pLADm [1] | pLADy (Saccharomyces cerevisiae) | MIC (Aspergillus fumigatus) | MIC (Nakaseomyces glabratus) | MIC (Kluyveromyces marxianus) | MIC (Candida albicans [2]) | MIC (Candida albicans [3]) | MIC (Candida albicans [4]) | MIC (Candida parapsilosis) | MIC (Candida tropicalis) | MIC (Pichia kudriavzevii) | MIC (Cryptococcus neoformans) | MIC (Microsporum canis) | MIC (Trichophyton benhamiae) | MIC (Trichophyton rubrum) | MIC (Sporothrix schenckii) | IC50 (Candida albicans [5]) |
| --- | --- | --- | --- | --- | --- | --- | --- | --- | --- | --- | --- | --- | --- | --- | --- | --- | --- |
| CCCCOc1ccc(S(=O)(=O)N(Cc2c[nH]cn2)[C@H](C)C2CCCCC2)cc1 | 4.6 | 6.13 | – | – | – | – | – | – | – | – | – | – | – | – | – | – | – |
| CCCCOc1ccc(S(=O)(=O)N(Cc2c[nH]cn2)[C@@H](C)C2CCCCC2)cc1 | 5 | 5.9 | – | – | – | – | – | – | – | – | – | – | – | – | – | – | – |
| CCCCOc1ccc(S(=O)(=O)N(CCc2ccc(F)cc2)CC2=CNC(C)N2)cc1 (centres undefined) | 3.92 | 3.95 | – | – | – | – | – | – | – | – | – | – | – | – | – | – | – |
| CCCCOc1ccc(S(=O)(=O)N(Cc2c[nH]cn2)C(CC)C2CCCCC2)cc1 (centres undefined) | 5 | >6.8 | > 10 µM | 1 µM (≈ 0.434 µg/mL) | < 0.1 µM | > 10 µM | < 0.1 µM | < 0.1 µM | < 0.1 µM | 1 µM (≈ 0.434 µg/mL) | 1 µM (≈ 0.434 µg/mL) | 1 µM (≈ 0.434 µg/mL) | 1 µM (≈ 0.434 µg/mL) | 10 µM (≈ 4.34 µg/mL) | 1 µM (≈ 0.434 µg/mL) | > 10 µM | – |
| CCCCOc1ccc(S(=O)(=O)N(CC2CCCCC2)C(C)c2c[nH]cn2)cc1 (centres undefined) | 4 | 6.3 | – | – | – | – | – | – | – | – | – | – | – | – | – | – | – |
| CCCCOc1ccc(S(=O)(=O)N(Cc2c[nH]cn2)CC2CCCCC2)cc1 | 3.6 | 6.1 | – | – | – | – | – | – | – | – | – | – | – | – | – | – | – |
| CC(C)C(C(C)C)N(Cc1c[nH]cn1)S(=O)(=O)c1cc(Cl)sc1Cl | 4.5 | 6.3 | – | – | – | – | – | – | – | – | – | – | – | – | – | – | 71 nM |
| CCCCOc1ccc(S(=O)(=O)N(CC2CCCCC2)C(c2ccccc2)c2c[nH]cn2)cc1 (centres undefined) | 4 | 5.1 | – | – | – | – | – | – | – | – | – | – | – | – | – | – | – |
| CCCCOc1ccc(S(=O)(=O)N(CCc2ccc(F)cc2)Cc2nc[nH]n2)cc1 | 3.92 | 3.95 | – | – | – | – | – | – | – | – | – | – | – | – | – | – | – |
| CCCCCCN(Cc1c[nH]cn1)S(=O)(=O)c1ccc(OCCCC)cc1 | 5.2 | 6.1 | – | – | – | – | – | – | – | – | – | – | – | – | – | – | 76 nM |
| CCCCOc1ccc(S(=O)(=O)N(CCCCc2ccccc2)Cc2c[nH]cn2)cc1 | 5.2 | 5.4 | – | – | – | – | – | – | – | – | – | – | – | – | – | – | 27 nM |
| CCCCOc1ccc(S(=O)(=O)N(Cc2c[nH]cn2)C(C2CCCCC2)C2CCCCC2)cc1 | 4 | 5 | – | – | – | – | – | – | – | – | – | – | – | – | – | – | – |
| CCCCOc1ccc(S(=O)(=O)N(CCc2ccc(F)cc2)Cc2c[nH]cn2)cc1 | 4.6 | 6.2 | > 10 µM | 10 µM (≈ 4.32 µg/mL) | < 0.1 µM | > 10 µM | < 0.1 µM | 10 µM (≈ 4.32 µg/mL) | 1 µM (≈ 0.432 µg/mL) | < 0.1 µM | > 10 µM | 1 µM (≈ 0.432 µg/mL) | 10 µM (≈ 4.32 µg/mL) | > 10 µM | 1 µM (≈ 0.432 µg/mL) | > 10 µM | 26 nM |
| CCCCOc1ccc(S(=O)(=O)N(Cc2c[nH]cn2)C(C(C)C)C(C)C)cc1 | 5 | 6.7 | > 10 µM | 10 µM (≈ 4.08 µg/mL) | < 0.1 µM | > 10 µM | < 0.1 µM | < 0.1 µM | 0.1 µM (≈ 0.0408 µg/mL) | 0.1 µM (≈ 0.0408 µg/mL) | 10 µM (≈ 4.08 µg/mL) | 1 µM (≈ 0.408 µg/mL) | 1 µM (≈ 0.408 µg/mL) | 10 µM (≈ 4.08 µg/mL) | 1 µM (≈ 0.408 µg/mL) | > 10 µM | 73 nM |
| CCCCOc1ccc(S(=O)(=O)N(CCc2ccccc2F)Cc2[nH]cnc2C)cc1 | <4 | <4 | – | – | – | – | – | – | – | – | – | – | – | – | – | – | – |
| CCCCOc1ccc(S(=O)(=O)N(Cc2cncn2C)C(C)C2CCCCC2)cc1 (centres undefined) | 4.8 | 6.6 | > 10 µM | 1 µM (≈ 0.434 µg/mL) | < 0.1 µM | > 10 µM | < 0.1 µM | 10 µM (≈ 4.34 µg/mL) | 0.1 µM (≈ 0.0434 µg/mL) | 0.1 µM (≈ 0.0434 µg/mL) | 1 µM (≈ 0.434 µg/mL) | 1 µM (≈ 0.434 µg/mL) | 1 µM (≈ 0.434 µg/mL) | 10 µM (≈ 4.34 µg/mL) | 1 µM (≈ 0.434 µg/mL) | > 10 µM | – |
| Brc1ccc(CCN(Cc2ccc(-c3ccccc3)cc2)Cc2c[nH]cn2)cc1 | 5.8 | 4.9 | – | – | – | – | – | – | – | – | – | – | – | – | – | – | 1240 nM |
| CCCCCc1ccc(S(=O)(=O)N(CCC(C)C)Cc2c[nH]cn2)cc1 | 5 | 6.4 | – | – | – | – | – | – | – | – | – | – | – | – | – | – | 120 nM |
| CCCCOc1ccc(S(=O)(=O)N(CCc2cccs2)Cc2c[nH]cn2)cc1 | 4.4 | 6.5 | – | – | – | – | – | – | – | – | – | – | – | – | – | – | 11 nM |
| OC(Cn1cncn1)(Cn1cncn1)c1ccc(F)cc1F [FLUCONAZOLE] | – | – | > 10 µM | > 10 µM | 1 µM (≈ 0.306 µg/mL) | > 10 µM | 1 µM (≈ 0.306 µg/mL) | 1 µM (≈ 0.306 µg/mL) | 10 µM (≈ 3.06 µg/mL) | > 10 µM | > 10 µM | 10 µM (≈ 3.06 µg/mL) | 10 µM (≈ 3.06 µg/mL) | > 10 µM | 10 µM (≈ 3.06 µg/mL) | > 10 µM | – |
| CCC(C)n1ncn(-c2ccc(N3CCN(c4ccc(OCC5COC(Cn6cncn6)(c6ccc(Cl)cc6Cl)O5)cc4)CC3)cc2)c1=O (centres undefined) [ITRACONAZOLE] | – | – | 1 µM (≈ 0.706 µg/mL) | 1 µM (≈ 0.706 µg/mL) | < 0.1 µM | > 10 µM | < 0.1 µM | > 10 µM | < 0.1 µM | 0.1 µM (≈ 0.0706 µg/mL) | 1 µM (≈ 0.706 µg/mL) | < 0.1 µM | < 0.1 µM | 0.1 µM (≈ 0.0706 µg/mL) | < 0.1 µM | 10 µM (≈ 7.06 µg/mL) | – |
| CC(=O)N1CCN(c2ccc(OC[C@H]3CO[C@](Cn4ccnc4)(c4ccc(Cl)cc4Cl)O3)cc2)CC1 [KETOCONAZOLE] | – | – | 10 µM (≈ 5.31 µg/mL) | 10 µM (≈ 5.31 µg/mL) | < 0.1 µM | > 10 µM | 0.1 µM (≈ 0.0531 µg/mL) | 10 µM (≈ 5.31 µg/mL) | 0.1 µM (≈ 0.0531 µg/mL) | 10 µM (≈ 5.31 µg/mL) | 1 µM (≈ 0.531 µg/mL) | 0.1 µM (≈ 0.0531 µg/mL) | 1 µM (≈ 0.531 µg/mL) | 10 µM (≈ 5.31 µg/mL) | 0.1 µM (≈ 0.0531 µg/mL) | 10 µM (≈ 5.31 µg/mL) | – |
